Data on 29 compounds can be found in patent US7009053B2, “Quinoline derivatives as caspase-3 inhibitor, preparation for producing the same and pharmaceutical composition comprising the same” (Yungjin Pharmaceuticals Co., Ltd., priority 2002, dated 2006).

The assay has as its target T1, human recombinant caspase-3 enzyme (Homo sapiens, UniProt P42574).
T1 construct: each cDNA encoding p12 and p17 subunits of caspase-3 was PCR-amplified respectively and subcloned into a pET3-a expression vector; made in house; host or cells: E. coli BL21 (DE3), pET3-a vector
T1 sequence (P42574 29-175 limits assumed): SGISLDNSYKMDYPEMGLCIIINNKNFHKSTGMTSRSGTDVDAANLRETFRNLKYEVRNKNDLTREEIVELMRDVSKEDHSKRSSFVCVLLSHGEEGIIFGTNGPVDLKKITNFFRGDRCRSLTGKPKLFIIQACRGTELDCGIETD
T1 sequence (P42574 176-277 limits assumed): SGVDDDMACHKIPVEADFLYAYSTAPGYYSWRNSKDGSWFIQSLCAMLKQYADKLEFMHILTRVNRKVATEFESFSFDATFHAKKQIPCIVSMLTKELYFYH
The experiment in a line: Enzyme assay of caspase-3 inhibition (fluorogenic Ac-DEVD-AFC substrate). The format is biochemical. The conditions noted are these: for IC50: caspase-3, Table 1, tested at 2, 20 or 200 uM, read-out: IC50; for inhibitory activity against caspase-3 (in words): compared to the reference compound. As to the method:
The active form of human recombinant caspase-3 enzyme was prepared from Escherichia coli (E.coli) heterologous expression system as described previously (Rotonda J. et al., Nat Struct Biol 3(7): 617–25, 1996). Briefly, each cDNA encoding p12 and p17 subunits of caspase-3 was PCR-amplified respectively and subcloned into a pET3-a expression vector (Novagen), which was followed by transfection into E. coli strain BL21 (DE3). The bacterial cultures (0.5 liters for each transfectant) were grown at 37° C. until logarithmic phase of cell growth and isopropyl-1-thio-β-D-galactopyranoside (IPTC) (Pharmacia) was then added to a final concentration of 0.5 mM. After 3 hr of incubation, the bacteria were pelleted and lysed in a lysis buffer (20 mM Tris hydrochloride pH 8.0, 1 mM EDTA, 2 mM dithiothreitol (DTT), 100 mM NaCl, 200 ug/ml of lysozyme) through sonication. After centrifugation, the pellets from each transfectants were dissolved in 6 M urea and were mixed and rapidly diluted 50 fold in 100 mM HEPES/KOH (pH 7.5), 10% sucrose, 0.1% CHAPS, 0.5 M NaCl, 10 mM DTT. The concentration of protein was determined with the Bradford method (Bio-Rad), with bovine serum albumin as the standard. To verify whether expected size of proteins were obtained, the cell lysates from each cDNA transfectants were analyzed on 14% SDS PAGE and visualized with Coomassie blue staining.
200 ul of the following assay solution was contained in each well of 96-well plate: 20 mM HEPES/KOH (pH 7.5), 10% sucrose, 10 mM DTT, 0.2 mM EDTA, 0.1% CHAPS, 200 ng of enzymes, and 2.5 uM of the substrate. The fluorogenic substrate […]-Asp-Glu-Val-Asp-7-amino-4-trifluoromethylcoumarin (Ac-DEVD-AFC) was purchased from Sigma (St Louis, Mo.) and dissolved in DMSO as a 2.5 mM stock solution and kept at −20° C. before use.
After 1 hr incubation at 37° C., the release of AFC (7-amino-4-trifluoromethyl-coumarin) was monitored in a fluorometric plate reader (Victor 1420). The excitation and emission wavelengths were 400 nm and 510 nm, respectively. The inhibitory effects of compounds on enzyme activities were determined with 2, 20 or 200 uM concentrations of the test compound run in triplicate tubes, and isotherms from three assays were calculated by computerized nonlinear regression analysis (GraphPad Prism Program, San Diego, Calif.) to yield IC50 values.

Turning to `CN1C(=O)C(=O)c2cc(S(=O)(=O)N3CCC[C@H]3COc3ccccc3)ccc21` [(S)-1-methyl-5-{1-[2-(phenoxymethyl)pyrrolidinyl]sulfonyl} isatin, reference compound], the “%-Inhibition” value (caspase-3 activity, at 20 uM) is 76.8%.
In the case of `CCOC(=O)c1cnc2c(N)cccc2c1NCc1ccccc1` [Example 17, 8-Amino-4-benzylamino-quinoline-3-carboxylic acid ethyl ester], the IC50 was determined as 14.4 µM. Further, the inhibition at 20 µM (caspase-3 activity, at 20 uM) came out at 81.7%.
On the same counts, the results for `CCOC(=O)c1cnc2c(N)cccc2c1NC1CCCCC1` [Example 18, 8-Amino-4-cyclohexylamino-quinoline-3-carboxylic acid ethyl ester] are 14.1 µM and 84.7%.
Regarding `CCOC(=O)c1cnc2c(N)cccc2c1NCc1cccc2ccccc12` [Example 19, 8-Amino-4-[(naphthalen-1-ylmethyl)-amino]-quinoline-3-carboxylic acid ethyl ester], the 50% inhibitory concentration (IC50) came to 14.9 µM. Moreover, for the setting “caspase-3 activity, at 20 uM”, the inhibition at 20 µM was determined as 84.9%.
In the case of `CCOC(=O)c1cnc2c(N)cccc2c1NCc1ccccn1` [Example 20, 8-Amino-4-[(pyridin-2-ylmethyl)-amino]-quinoline-3-carboxylic acid ethyl ester], the IC50 amounted to 13.2 µM and the “inhibitory activity against caspase-3 (in words)” value (from here on “inhibitory activity”) is given as “superior activity”. Besides, under “caspase-3 activity, at 20 uM”, the inhibition at 20 µM stood at 90.1%.
As to `CCOC(=O)c1cnc2c(N)cccc2c1NCc1cccs1` [Example 21, 8-Amino-4-[(thiophen-2-ylmethyl)-amino]-quinoline-3-carboxylic acid ethyl ester], the 50% inhibitory concentration (IC50) was 19.2 µM. The inhibition at 20 µM (caspase-3 activity, at 20 uM) was 78%.
On the same counts, the results for `CCOC(=O)c1cnc2c(N)cccc2c1NCc1ccc2c(c1)OCO2` [Example 23, 8-Amino-4-[(benzo[1,3]dioxol-5-ylmethyl)-amino]-quinoline-3-carboxylic acid ethyl ester] are 14.3 µM and 86%.
On the same counts, the results for `CCOC(=O)c1cnc2c(N)cccc2c1NC(CC)COC` (stereo not drawn) [Example 25, 8-Amino-4-(1-methoxymethyl-propylamino)-quinoline-3-carboxylic acid ethyl ester] are 16.5 µM and 88.8%.
On the same counts, the results for `CCCCNc1c(C(=O)OCC)cnc2c(N)cccc12` [Example 26, 8-Amino-4-butylamino-quinoline-3-carboxylic acid ethyl ester] are 15.4 µM and 88.9%.
Turning to `CCOC(=O)c1cnc2c(N)cccc2c1NCC(C)C` [Example 27, 8-Amino-4-isobutylamino-quinoline-3-carboxylic acid ethyl ester], the IC50 was determined as 15.9 µM. In addition, the inhibition at 20 µM (caspase-3 activity, at 20 uM) was 87.8%.
For `CCOC(=O)c1cnc2c(N)cccc2c1NC(C)C` [Example 28, 8-Amino-4-isopropylamino-quinoline-3-carboxylic acid ethyl ester], in that order: 17.6 µM and 85.2%.
As for `CCOC(=O)c1cnc2c(N)cccc2c1NCc1ccccc1F` [Example 29, 8-Amino-4-(2-fluoro-benzylamino)-quinoline-3-carboxylic acid ethyl ester], the concentration for half-maximal inhibition (IC50) was determined as 18.8 µM. Further, for the setting “caspase-3 activity, at 20 uM”, the inhibition at 20 µM is 78.8%.
Consider `CCOC(=O)c1cnc2c(N)cccc2c1NCc1cccc(F)c1` [Example 30, 8-Amino-4-(3-fluoro-benzylamino)-quinoline-3-carboxylic acid ethyl ester], for which the IC50 was 19.1 µM. In addition, the inhibition at 20 µM (caspase-3 activity, at 20 uM) is 76.9%.
Take `CCOC(=O)c1cnc2c(N)cccc2c1NCCCOC(C)C` [Example 31, 8-Amino-4-(3-isopropoxy-propylamino)-quinoline-3-carboxylic acid ethyl ester]: the half-inhibitory concentration (IC50) was determined as 13.5 µM and the “inhibitory activity” value is reported as “superior activity”. Further, the inhibition at 20 µM (caspase-3 activity, at 20 uM) was 92.5%.
Regarding `CCOC(=O)c1cnc2c(N)cccc2c1NCc1ccccc1OC` [Example 32, 8-Amino-4-(2-methoxy-benzylamino)-quinoline-3-carboxylic acid ethyl ester], the concentration for half-maximal inhibition (IC50) amounted to 16.9 µM. Besides, the inhibition at 20 µM (caspase-3 activity, at 20 uM) came to 82.9%.
On the same counts, the results for `CCOC(=O)c1cnc2c(N)cccc2c1NCc1ccc(OC)cc1` [Example 33, 8-Amino-4-(4-methoxy-benzylamino)-quinoline-3-carboxylic acid ethyl ester] are 15.8 µM and 86.5%.
Consider `CCOC(=O)c1cnc2c(N)cccc2c1NCc1cccc(OC)c1` [Example 34, 8-Amino-4-(3-methoxy-benzylamino)-quinoline-3-carboxylic acid ethyl ester], for which the IC50 stood at 16 µM. Also, the inhibition at 20 µM (caspase-3 activity, at 20 uM) is 83.9%.
On to `CCOC(=O)c1cnc2c(N)cccc2c1NCCOC` [Example 35, 8-Amino-4-(2-methoxy-ethylamino)-quinoline-3-carboxylic acid ethyl ester], for which the IC50 was 13.6 µM and the “inhibitory activity” value is listed as “superior activity”. Besides, for the setting “caspase-3 activity, at 20 uM”, the inhibition at 20 µM was determined as 91.5%.
For the compound `CCOC(=O)c1cnc2c(N)cccc2c1NCc1ccc(C)cc1` [Example 37, 8-Amino-4-(4-methyl-benzylamino)-quinoline-3-carboxylic acid ethyl ester], the IC50 worked out at 15.3 µM. In addition, the inhibition at 20 µM (caspase-3 activity, at 20 uM) worked out at 82.1%.
For `CCOC(=O)c1cnc2c(N)cccc2c1NCCc1ccccc1` [Example 38, 8-Amino-4-phenethylamino-quinoline-3-carboxylic acid ethyl ester], in that order: 16.6 µM and 77.2%.
Turning to `CCOC(=O)c1cnc2c(N)cccc2c1NCCCc1ccccc1` [Example 39, 8-Amino-4-(3-phenyl-propylamino)-quinoline-3-carboxylic acid ethyl ester], the IC50 is 16.4 µM. The inhibition at 20 µM (caspase-3 activity, at 20 uM) worked out at 78.8%.
Regarding `CCOC(=O)c1cnc2c(N)cccc2c1NCCCCc1ccccc1` [Example 40, 8-Amino-4-(4-phenyl-butylamino)-quinoline-3-carboxylic acid ethyl ester], the IC50 worked out at 16.4 µM. The inhibition at 20 µM (caspase-3 activity, at 20 uM) was found to be 81.7%.
With `CCOC(=O)c1cnc2c(N)cccc2c1NCc1ccccc1Cl` [Example 41, 8-Amino-4-(2-chloro-benzylamino)-quinoline-3-carboxylic acid ethyl ester], the concentration for half-maximal inhibition (IC50) was determined as 17.8 µM. Further, for the setting “caspase-3 activity, at 20 uM”, the inhibition at 20 µM was 78.4%.
On the same counts, the results for `CCOC(=O)c1cnc2c(N)cccc2c1NCc1ccc(Cl)cc1` [Example 42, 8-Amino-4-(4-chloro-benzylamino)-quinoline-3-carboxylic acid ethyl ester] are 17 µM and 82.9%.
For `CCOC(=O)c1cnc2c(N)cccc2c1NCc1ccc(Cl)cc1Cl` [Example 43, 8-Amino-4-(2,4-dichloro-benzylamino)-quinoline-3-carboxylic acid ethyl ester], in that order: 27 µM and 54.7%.
As for `CCOC(=O)c1cnc2c(N)cccc2c1NCc1cccc(OC)c1OC` [Example 44, 8-Amino-4-(2,3-dimethoxy-benzylamino)-quinoline-3-carboxylic acid ethyl ester], the half-maximal inhibitory concentration (IC50) is 18.1 µM. Under “caspase-3 activity, at 20 uM”, the inhibition at 20 µM came out at 72.1%.
On the same counts, the results for `CCCNc1c(C(=O)OCC)cnc2c(N)cccc12` [Example 45, 8-Amino-4-propylamino-quinoline-3-carboxylic acid ethyl ester] are 16 µM and 85%.
On to `CCOC(=O)c1cnc2c(N)cccc2c1NCCc1ccccc1N` [Example 46, 8-Amino-4-[2-(2-amino-phenyl)-ethylamino]-quinoline-3-carboxylic acid ethyl ester], for which the IC50 stood at 16.2 µM. Besides, the inhibition at 20 µM (caspase-3 activity, at 20 uM) worked out at 83.8%.
On to `CCOC(=O)c1cnc2c(N)cccc2c1NCc1cc(OC)cc(OC)c1` [Example 47, 8-Amino-4-(3,5-dimethoxy-benzylamino)-quinoline-3-carboxylic acid ethyl ester], for which the IC50 turned out to be 21.2 µM. Besides, the inhibition at 20 µM (caspase-3 activity, at 20 uM) worked out at 69.3%.
